Laboratory results from patent US20070128217A1 (priority 2003, published 2007).

Columns and labels:
[1] = system: antibodies in sera from SARS patients (sera 1a, 1b, 2, 6, 37, 62, London, SARS-yellow, SARS-green); format: binding, human; parameters: Binding of serum 6 to linear peptides of protein X1 of SARS-CoV Urbani / Binding of serum 37 to linear peptides of protein X1 of SARS-CoV Urbani / Binding of serum 6 to looped/cyclic peptide (PEPSCAN-ELISA) / Binding of serum 37 to looped/cyclic peptide (PEPSCAN-ELISA) / Binding of serum 37 to looped/cyclic peptides of protein X1 of SARS-CoV Urbani / Binding of serum 6 to linear peptides of protein X2 / Binding of serum 37 to linear peptides of protein X2 / Binding of serum 37 to looped/cyclic peptides of protein X2 of SARS-CoV Urbani / Binding of serum 6 to linear peptides of protein M of SARS-CoV Urbani / Binding of serum 37 to linear peptides of protein M of SARS-CoV Urbani / Binding of serum 6 to looped/cyclic peptides of protein M of SARS-CoV Urbani / Binding of serum 37 to looped/cyclic peptides of protein M of SARS-CoV Urbani / Binding of serum 6 to linear peptides of protein X3 of SARS-CoV Urbani / Binding of serum 37 to linear peptides of protein X3 of SARS-CoV Urbani / Binding of serum 37 to looped/cyclic peptides of protein X3 of SARS-CoV Urbani / Binding of serum 6 to linear peptides of protein X4 of SARS-CoV Urbani / Binding of serum 37 to linear peptides of protein X4 of SARS-CoV Urbani / Binding of serum 37 to looped/cyclic peptides of protein X4 of SARS-CoV Urbani / Binding of serum 6 to linear peptides of protein X5 of SARS-CoV Urbani / Binding of serum 37 to linear peptides of protein X5 of SARS-CoV Urbani / Binding of serum 37 to looped/cyclic peptides of protein X5 of SARS-CoV Urbani / Binding of serum 6 to linear peptides of protein N of SARS-CoV Urbani / Binding of serum 37 to linear peptides of protein N of SARS-CoV Urbani / Binding of serum 6 to linear peptide (PEPSCAN-ELISA) / Binding of serum 1a to looped/cyclic peptides of protein N of SARS-CoV Urbani / Binding of serum 1b to looped/cyclic peptides of protein N of SARS-CoV Urbani / Binding of serum 2 to looped/cyclic peptides of protein N of SARS-CoV Urbani / Binding of serum 6 to looped/cyclic peptides of protein N of SARS-CoV Urbani / Binding of serum 37 to looped/cyclic peptides of protein N of SARS-CoV Urbani / Binding of serum 62 to looped/cyclic peptides of protein N of SARS-CoV Urbani / Binding of serum London to looped/cyclic peptides of protein N of SARS-CoV Urbani / Binding of serum SARS-green to looped/cyclic peptides of protein N of SARS-CoV Urbani: unit not given here
[2] = system: control sera (pooled serum of ten healthy LUMC hospital workers; commercial negative donor pooled serum from the Dutch bloodbank); format: binding, human; parameters: Binding of Control serum LUMC to linear peptides / Binding of Control serum Blood-bank to linear peptides / Binding of Control serum LUMC to looped peptides / Binding of Control Serum Blood-Bank to Looped peptides / Binding of Control serum LUMC to linear peptides of the protein M of SARS-CoV Urbani / Binding of Control serum Blood-bank to linear peptides of the protein M of SARS-CoV Urbani / Binding of Control serum LUMC to looped peptides of the protein M of SARS-CoV Urbani / Binding of Control Serum Blood-Bank to Looped peptides of the protein M of SARS-CoV Urbani: unit not given here
[3] = system: rabbit serum obtained by immunizing a rabbit with the SARS-CoV strain Frankfurt 1; format: binding; parameters: Binding of a rabbit serum to linear peptides / Binding of a rabbit serum to looped peptides / Rabbit serum linear peptides / Rabbit serum looped peptides / Binding of a rabbit serum to linear peptides of protein N of SARS-CoV Urbani (Rabbit serum linear peptides) / Binding of a rabbit serum to looped/cyclic peptides of protein N of SARS-CoV Urbani (Rabbit serum looped peptides): unit not given here

VASFRLFARTRSMWS
Binding of serum 1a to linear peptides of protein M of SARS-CoV Urbani [1]: 0.7
Binding of serum 1b to linear peptides of protein M of SARS-CoV Urbani [1]: 0.5
Binding of serum 2 to linear peptides of protein M of SARS-CoV Urbani [1]: 0.5
Binding of serum 6 to linear peptides of protein M of SARS-CoV Urbani [1]: 0.3
Binding of serum 37 to linear peptides of protein M of SARS-CoV Urbani [1]: 0.7
Binding of serum 62 to linear peptides of protein M of SARS-CoV Urbani [1]: 0.8
Binding of serum London to linear peptides of protein M of SARS-CoV Urbani [1]: 0.3
Binding of serum SARS-green to linear peptides of protein M of SARS-CoV Urbani [1]: 0.3
Binding of serum SARS-yellow to linear peptides of protein M of SARS-CoV Urbani [1]: 0.0
Recognition of the peptide by sera of SARS-CoV infected individuals, and form (linear, looped/cyclic) in which it is recognized [1]: recognized in looped/cyclic form
Binding of Control Serum Blood-Bank to Looped peptides of the protein M of SARS-CoV Urbani [2]: 0.8
Binding of Control serum Blood-bank to linear peptides of the protein M of SARS-CoV Urbani [2]: 0.7
Binding of Control serum LUMC to linear peptides of the protein M of SARS-CoV Urbani [2]: 0.4
Binding of Control serum LUMC to looped peptides of the protein M of SARS-CoV Urbani [2]: 0.6
Rabbit serum linear peptides [3]: 0.8
Rabbit serum looped peptides [3]: 0.4

VFLWLLWPVTLACFV
Binding of serum 1a to linear peptides of protein M of SARS-CoV Urbani [1]: 0.8
Binding of serum 1a to looped/cyclic peptides of protein M of SARS-CoV Urbani [1]: 0.7
Binding of serum 1b to linear peptides of protein M of SARS-CoV Urbani [1]: 0.6
Binding of serum 1b to looped/cyclic peptides of protein M of SARS-CoV Urbani [1]: 0.0
Binding of serum 2 to linear peptides of protein M of SARS-CoV Urbani [1]: 0.6
Binding of serum 2 to looped/cyclic peptides of protein M of SARS-CoV Urbani [1]: 0.7
Binding of serum 6 to linear peptides of protein M of SARS-CoV Urbani [1]: 0.4
Binding of serum 6 to looped/cyclic peptides of protein M of SARS-CoV Urbani [1]: 0.5
Binding of serum 37 to linear peptides of protein M of SARS-CoV Urbani [1]: 0.5
Binding of serum 37 to looped/cyclic peptides of protein M of SARS-CoV Urbani [1]: 0.7
Binding of serum 62 to linear peptides of protein M of SARS-CoV Urbani [1]: 0.5
Binding of serum 62 to looped/cyclic peptides of protein M of SARS-CoV Urbani [1]: 0.7
Binding of serum London to linear peptides of protein M of SARS-CoV Urbani [1]: 0.5
Binding of serum London to looped/cyclic peptides of protein M of SARS-CoV Urbani [1]: 0.2
Binding of serum SARS-green to linear peptides of protein M of SARS-CoV Urbani [1]: 0.6
Binding of serum SARS-green to looped/cyclic peptides of protein M of SARS-CoV Urbani [1]: 0.3
Binding of serum SARS-yellow to linear peptides of protein M of SARS-CoV Urbani [1]: 0.3
Binding of serum SARS-yellow to looped/cyclic peptides of protein M of SARS-CoV Urbani [1]: 0.8
Binding of Control Serum Blood-Bank to Looped peptides of the protein M of SARS-CoV Urbani [2]: 0.8
Binding of Control serum Blood-bank to linear peptides of the protein M of SARS-CoV Urbani [2]: 0.6
Binding of Control serum LUMC to linear peptides of the protein M of SARS-CoV Urbani [2]: 0.6
Binding of Control serum LUMC to looped peptides of the protein M of SARS-CoV Urbani [2]: 0.8
Rabbit serum linear peptides [3]: 0.3
Rabbit serum looped peptides [3]: 0.3

VIGFLFLAWIMLLQF
Binding of serum 1a to linear peptides of protein M of SARS-CoV Urbani [1]: 0.7
Binding of serum 1a to looped/cyclic peptides of protein M of SARS-CoV Urbani [1]: 0.7
Binding of serum 1b to linear peptides of protein M of SARS-CoV Urbani [1]: 0.4
Binding of serum 1b to looped/cyclic peptides of protein M of SARS-CoV Urbani [1]: 0.4
Binding of serum 2 to linear peptides of protein M of SARS-CoV Urbani [1]: 0.4
Binding of serum 2 to looped/cyclic peptides of protein M of SARS-CoV Urbani [1]: 0.5
Binding of serum 6 to linear peptides of protein M of SARS-CoV Urbani [1]: 0.3
Binding of serum 6 to looped/cyclic peptides of protein M of SARS-CoV Urbani [1]: 0.5
Binding of serum 37 to linear peptides of protein M of SARS-CoV Urbani [1]: 0.7
Binding of serum 37 to looped/cyclic peptides of protein M of SARS-CoV Urbani [1]: 0.5
Binding of serum 62 to linear peptides of protein M of SARS-CoV Urbani [1]: 0.7
Binding of serum 62 to looped/cyclic peptides of protein M of SARS-CoV Urbani [1]: 0.7
Binding of serum London to linear peptides of protein M of SARS-CoV Urbani [1]: 0.3
Binding of serum London to looped/cyclic peptides of protein M of SARS-CoV Urbani [1]: 0.2
Binding of serum SARS-green to linear peptides of protein M of SARS-CoV Urbani [1]: 0.2
Binding of serum SARS-green to looped/cyclic peptides of protein M of SARS-CoV Urbani [1]: 0.3
Binding of serum SARS-yellow to linear peptides of protein M of SARS-CoV Urbani [1]: 0.0
Binding of serum SARS-yellow to looped/cyclic peptides of protein M of SARS-CoV Urbani [1]: 0.6
Binding of Control Serum Blood-Bank to Looped peptides of the protein M of SARS-CoV Urbani [2]: 0.7
Binding of Control serum Blood-bank to linear peptides of the protein M of SARS-CoV Urbani [2]: 0.5
Binding of Control serum LUMC to linear peptides of the protein M of SARS-CoV Urbani [2]: 0.3
Binding of Control serum LUMC to looped peptides of the protein M of SARS-CoV Urbani [2]: 0.7
Rabbit serum linear peptides [3]: 0.3
Rabbit serum looped peptides [3]: 0.3

VIGVAFLAVFQSATK
Binding of serum 1a to linear peptides of protein X1 of SARS-CoV Urbani [1]: 0.5
Binding of serum 1a to looped/cyclic peptide (PEPSCAN-ELISA) [1]: 0.4
Binding of serum 1b to linear peptides of protein X1 of SARS-CoV Urbani [1]: 0.4
Binding of serum 1b to looped/cyclic peptide (PEPSCAN-ELISA) [1]: 0.3
Binding of serum 2 to linear peptides of protein X1 of SARS-CoV Urbani [1]: 0.4
Binding of serum 2 to looped/cyclic peptide (PEPSCAN-ELISA) [1]: 0.3
Binding of serum 6 to linear peptides of protein X1 of SARS-CoV Urbani [1]: 0.4
Binding of serum 6 to looped/cyclic peptide (PEPSCAN-ELISA) [1]: 0.6
Binding of serum 37 to linear peptides of protein X1 of SARS-CoV Urbani [1]: 0.5
Binding of serum 37 to looped/cyclic peptide (PEPSCAN-ELISA) [1]: 0.4
Binding of serum 62 to linear peptides of protein X1 of SARS-CoV Urbani [1]: 0.4
Binding of serum 62 to looped/cyclic peptide (PEPSCAN-ELISA) [1]: 0.4
Binding of serum London to linear peptides of protein X1 of SARS-CoV Urbani [1]: 0.2
Binding of serum London to looped/cyclic peptide (PEPSCAN-ELISA) [1]: 0.7
Binding of serum SARS-green to linear peptides of protein X1 of SARS-CoV Urbani [1]: 0.1
Binding of serum SARS-green to looped/cyclic peptide (PEPSCAN-ELISA) [1]: 0.2
Binding of serum SARS-yellow to linear peptides of protein X1 of SARS-CoV Urbani [1]: 0.2
Binding of serum SARS-yellow to looped/cyclic peptide (PEPSCAN-ELISA) [1]: 0.5
Binding of Control Serum Blood-Bank to Looped peptides [2]: 0.5
Binding of Control serum Blood-bank to linear peptides [2]: 0.5
Binding of Control serum LUMC to linear peptides [2]: 0.5
Binding of Control serum LUMC to looped peptides [2]: 0.5
Binding of a rabbit serum to linear peptides [3]: 0.1
Binding of a rabbit serum to looped peptides [3]: 0.6
